24 compounds from patent publication US20250250232A1, “AZETIDINE DERIVATIVES AND USE THEREOF AS DIPEPTIDYL PEPTIDASE 1 INHIBITORS” (CHIESI FARMACEUTICI S.P.A., priority 2022, published 2025) can be followed below.

Values joined by “and” are separate entries in the source; they are usually repeats but may differ in a detail not shown here. Equal values may be shown once.

Chain of human DPP1 enzyme (P53634 231-394): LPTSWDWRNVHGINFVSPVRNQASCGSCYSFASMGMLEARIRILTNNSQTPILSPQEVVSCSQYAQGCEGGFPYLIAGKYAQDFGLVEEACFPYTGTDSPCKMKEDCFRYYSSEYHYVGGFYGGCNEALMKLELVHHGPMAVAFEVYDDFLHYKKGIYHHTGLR
Chain of human DPP1 enzyme (P53634 25-134): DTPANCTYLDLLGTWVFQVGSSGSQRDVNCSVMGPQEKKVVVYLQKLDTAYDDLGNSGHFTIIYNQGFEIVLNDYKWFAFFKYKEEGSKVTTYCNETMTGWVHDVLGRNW
Chain of human DPP1 enzyme (P53634 395-463): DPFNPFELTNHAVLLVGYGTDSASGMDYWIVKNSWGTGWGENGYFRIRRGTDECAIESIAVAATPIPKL

One assay addresses human DPP1 enzyme (Homo sapiens (Human), UniProt P53634). Nature of the assay: Activity on human recombinant DPP1 isolated enzyme assay (H-Gly-Arg-AMC cleavage, fluorescence). In kind it is biochemical. Conditions: 0.35 nM human DPP1, 300 μM H-Gly-Arg-AMC, 30 min pre-incubation at 25° C., pH 5.0. Here is the method: Human DPP1 enzyme activity was determined by measuring release of the fluorophore aminomethyl coumarin (AMC) following enzymatic cleavage of the dipeptide substrate H-Gly-Arg-AMC. Assays were performed in black 384 well plates in 25 mM piperazine buffer, pH 5.0, containing 50 mM NaCl, 0.01% (v/v) Triton X100, 5 mM DTT with 0.35 nM human DPP1 enzyme, 300 μM H-Gly-Arg-AMC substrate (˜Km concentration) and test compounds at 0.51-10000 nM concentration range. Human DPP1 was pre-incubated with test compounds for 30 minutes at 25° C. prior to substrate incubation for a further 40 minutes at 25° C. Enzyme activity was determined by measuring fluorescence of the AMC product at excitation and emission wavelengths of 380 nm and 460 nm using a BMG LABTECH PHERA star plate reader. Test compound potencies are reported in Table 15 as pIC50 values generated from 4-parameter sigmoidal curve fitting of the measured concentration-inhibition responses.
For the compound `N#C[C@H](Cc1ccc(-c2ccc3c(c2)C2(CCN(C4COC4)CC2)OC3)cc1F)NC(=O)C1(C(F)F)CNC1` [Example 15, (S)-N-(1-cyano-2-(2-fluoro-4-(1′-(oxetan-3-yl)-3H-spiro[isobenzofuran-1,4′-piperidin]-6-yl)phenyl)ethyl)-3-(difluoromethyl)azetidine-3-carboxamide], the “h DPP1 pIC50” value is recorded as “++++ (h DPP1 pIC50 higher than 8)”. Same read-out and setting: the result for `CN1C(=O)Cc2ccc(-c3ccc(C[C@@H](C#N)NC(=O)C4(C(F)F)CNC4)c(F)c3)cc21` [Example 16, (S)-N-(1-cyano-2-(2-fluoro-4-(1-methyl-2-oxoindolin-6-yl)phenyl)ethyl)-3-(difluoromethyl)azetidine-3-carboxamide] reads “++++ (h DPP1 pIC50 higher than 8)”.

Staying with this assay, now noted: 0.35 nM human DPP1, 300 μM H-Gly-Arg-AMC, 30 min pre-incubation at 25° C., pH 5.0; read-out: h DPP1 pIC50 (converted).
In the case of `COC1(C(=O)NC(C#N)Cc2ncc(-c3ccc(C#N)cc3)cc2F)CN(C)C1` (racemic) [Example 43, N-(1-cyano-2-(5-(4-cyanophenyl)-3-fluoropyridin-2-yl)ethyl)-3-methoxy-1-methylazetidine-3-carboxamide], the IC50 is 0.01 to 0.1 µM. As to `COC1(C(=O)NC(C#N)Cc2ncc(-c3ccc(C#N)cc3)cc2F)CN(C)C1` (single isomer, unassigned; enantiomer 1) [Example 44, enantiomer 1 of N-(1-cyano-2-(5-(4-cyanophenyl)-3-fluoropyridin-2-yl)ethyl)-3-methoxy-1-methylazetidine-3-carboxamide], the IC50 was 0.01 to 0.1 µM.

As for `COC1(C(=O)NC(C#N)Cc2ncc(-c3ccc(C#N)cc3)cc2F)CN(C)C1` (single isomer, unassigned; enantiomer 2) [Example 45, Enantiomer 2 of N-(1-cyano-2-(5-(4-cyanophenyl)-3-fluoropyridin-2-yl)ethyl)-3-methoxy-1-methylazetidine-3-carboxamide], the IC50 was 1 to 10 µM.

On to `N#Cc1ccc(-c2ccc(C[C@@H](C#N)NC(=O)C3(O)CNC3)cc2)cc1` [Example 1, (S)-N-(1-cyano-2-(4′-cyano-[1,1′-biphenyl]-4-yl)ethyl)-3-hydroxyazetidine-3-carboxamide], for which the IC50 is 0.1 to 1 µM. In the case of `N#Cc1ccc(-c2ccc(C[C@@H](C#N)NC(=O)C3(F)CNC3)cc2)cc1` [Example 2, (S)-N-(1-cyano-2-(4′-cyano-[1,1′-biphenyl]-4-yl)ethyl)-3-fluoroazetidine-3-carboxamide], the IC50 is 0.1 to 1 µM. For the compound `CC1NCC1C(=O)N[C@H](C#N)Cc1ccc(-c2ccc(C#N)cc2)cc1` (stereo partly drawn) [Example 3, N-((S)-1-cyano-2-(4′-cyano-[1,1′-biphenyl]-4-yl)ethyl)-2-methylazetidine-3-carboxamide], the IC50 was 1 to 10 µM. On the same count and under the same terms, the result for `CC1(C)NCC1C(=O)N[C@H](C#N)Cc1ccc(-c2ccc(C#N)cc2)cc1` (stereo partly drawn) [Example 4, N-((S)-1-cyano-2-(4′-cyano-[1,1′-biphenyl]-4-yl)ethyl)-2,2-dimethylazetidine-3-carboxamide] reads 1 to 10 µM. Consider `CCC1(C(=O)N[C@H](C#N)Cc2ccc(-c3ccc(C#N)cc3)cc2)CNC1` [Example 5, (S)-N-(1-cyano-2-(4′-cyano-[1,1′-biphenyl]-4-yl)ethyl)-3-ethylazetidine-3-carboxamide], for which the IC50 is 0.1 to 1 µM. As to `COC1(C(=O)N[C@H](C#N)Cc2ccc(-c3ccc(C#N)cc3)cc2)CNC1` [Example 6, (S)-N-(1-cyano-2-(4′-cyano-[1,1′-biphenyl]-4-yl)ethyl)-3-methoxyazetidine-3-carboxamide], the IC50 is 0.01 to 0.1 µM.

For the compound `N#Cc1ccc(-c2ccc(C[C@@H](C#N)NC(=O)C3(C(F)F)CNC3)cc2)cc1` [Example 7, (S)-N-(1-cyano-2-(4′-cyano-[1,1′-biphenyl]-4-yl)ethyl)-3-(difluoromethyl)azetidine-3-carboxamide], the IC50 is 0.01 to 0.1 µM. As to `N#Cc1ccc(-c2ccc(C[C@@H](C#N)NC(=O)C3(CF)CNC3)cc2)cc1` [Example 8, (S)-N-(1-cyano-2-(4′-cyano-[1,1′-biphenyl]-4-yl)ethyl)-3-(fluoromethyl)azetidine-3-carboxamide], the IC50 was 0.01 to 0.1 µM. Take `N#Cc1ccc(-c2ccc(C[C@@H](C#N)NC(=O)C3CNC3)cc2)cc1` [Example 9, (S)-N-(1-cyano-2-(4′-cyano-[1,1′-biphenyl]-4-yl)ethyl)azetidine-3-carboxamide]: the IC50 is 1 to 10 µM and 0.1 to 1 µM. On the same count and under the same terms, the result for `COCC1(C(=O)N[C@H](C#N)Cc2ccc(-c3ccc(C#N)cc3)cc2)CNC1` [Example 10, (S)-N-(1-cyano-2-(4′-cyano-[1,1′-biphenyl]-4-yl)ethyl)-3-(methoxymethyl)azetidine-3-carboxamide] reads 1 to 10 µM; that for `CCOC1(C(=O)N[C@H](C#N)Cc2ccc(-c3ccc(C#N)cc3)cc2)CNC1` [Example 11, (S)-N-(1-cyano-2-(4′-cyano-[1,1′-biphenyl]-4-yl)ethyl)-3-ethoxyazetidine-3-carboxamide], 0.01 to 0.1 µM; that for `COC1(C(=O)N[C@H](C#N)Cc2ccc(-c3ccc(C#N)cc3)cc2F)CNC1` [Example 12, (S)-N-(1-cyano-2-(4′-cyano-3-fluoro-[1,1′-biphenyl]-4-yl)ethyl)-3-methoxyazetidine-3-carboxamide], 0.01 to 0.1 µM. Still for that read-out and setting: the result for `N#Cc1ccc(-c2ccc(C[C@@H](C#N)NC(=O)C3(C(F)F)CNC3)c(F)c2)cc1` [Example 13, (S)-N-(1-cyano-2-(4′-cyano-3-fluoro-[1,1′-biphenyl]-4-yl)ethyl)-3-(difluoromethyl)azetidine-3-carboxamide] reads 0.01 to 0.1 µM; that for `Cn1c(=O)oc2ccc(-c3ccc(C[C@@H](C#N)NC(=O)C4(C(F)F)CNC4)cc3)cc21` [Example 14, (S)-N-(1-cyano-2-(4-(3-methyl-2-oxo-2,3-dihydrobenzo[d]oxazol-5-yl)phenyl)ethyl)-3-(difluoromethyl)azetidine-3-carboxamide], 0.01 to 0.1 µM; that for `N#Cc1ccc(-c2ccc(C[C@@H](C#N)NC(=O)C3(C(F)(F)F)CNC3)cc2)cc1` [Example 17, (S)-N-(1-cyano-2-(4′-cyano-[1,1′-biphenyl]-4-yl)ethyl)-3-(trifluoromethyl)azetidine-3-carboxamide], 0.01 to 0.1 µM.

Turning to `CSC1(C(=O)N[C@H](C#N)Cc2ccc(-c3ccc(C#N)cc3)cc2)CNC1` [Example 18, (S)-N-(1-cyano-2-(4′-cyano-[1,1′-biphenyl]-4-yl)ethyl)-3-(methylthio)azetidine-3-carboxamide], the IC50 was 0.01 to 0.1 µM.

In the case of `N#Cc1ccc(-c2ccc(C[C@@H](C#N)NC(=O)C3(Cc4ccccc4)CNC3)cc2)cc1` [Example 20, (S)-3-benzyl-N-(1-cyano-2-(4′-cyano-[1,1′-biphenyl]-4-yl)ethyl)azetidine-3-carboxamide], the IC50 was 1 to 10 µM. As for `N#Cc1ccc(-c2ccc(C[C@@H](C#N)NC(=O)C3(Oc4ccccc4)CNC3)cc2)cc1` [Example 21, (S)-N-(1-cyano-2-(4′-cyano-[1,1′-biphenyl]-4-yl)ethyl)-3-phenoxyazetidine-3-carboxamide], the IC50 is 1 to 10 µM. Regarding `COC1(C(=O)N[C@H](C#N)Cc2ccc(-c3ccc4c(c3)N(C)C(=O)C4)cc2)CNC1` [Example 22, (S)-N-(1-cyano-2-(4-(1-methyl-2-oxoindolin-6-yl)phenyl)ethyl)-3-methoxyazetidine-3-carboxamide], the IC50 is 0.01 to 0.1 µM.

Staying with this assay, now noted: human recombinant DPP1 isolated enzyme assay; read-out: pIC50 on DPP1 (converted).
In the case of `N#Cc1ccc(-c2ccc(C[C@@H](C#N)NC(=O)C3CNC3)cc2)cc1` [Example 9, (S)-N-(1-cyano-2-(4′-cyano-[1,1′-biphenyl]-4-yl)ethyl)azetidine-3-carboxamide], the IC50 is 1 to 10 µM.
